Data set [1] relates to 80 known receptors, ion channels, and enzyme targets. Nature of the data set: Screen of 80 known receptors, ion channels, and enzyme targets. As to conditions: concentrations up to 10 μM; internal data.
The conditions of data set [2]: human, in vivo, po, 100 mg.
Data set [3] concerns human P‐gp, BCRP, BSEP, MATE1, MATE2‐K, OAT1, OAT3, OATP1B1, OATP1B3, OCT1, OCT2. As to conditions: tested transporter panel (ulotaront: except OCT2); cited from earlier work.
The test system of a further data set is OAT3. As to conditions: at 50 μM; cited from earlier work.
The next data set has as its system MATE1. As to conditions: at 50 μM; cited from earlier work.
In data set [4] the target is T1, OCT2 (Homo sapiens, UniProt O15244).
T1 sequence (O15244 1-555): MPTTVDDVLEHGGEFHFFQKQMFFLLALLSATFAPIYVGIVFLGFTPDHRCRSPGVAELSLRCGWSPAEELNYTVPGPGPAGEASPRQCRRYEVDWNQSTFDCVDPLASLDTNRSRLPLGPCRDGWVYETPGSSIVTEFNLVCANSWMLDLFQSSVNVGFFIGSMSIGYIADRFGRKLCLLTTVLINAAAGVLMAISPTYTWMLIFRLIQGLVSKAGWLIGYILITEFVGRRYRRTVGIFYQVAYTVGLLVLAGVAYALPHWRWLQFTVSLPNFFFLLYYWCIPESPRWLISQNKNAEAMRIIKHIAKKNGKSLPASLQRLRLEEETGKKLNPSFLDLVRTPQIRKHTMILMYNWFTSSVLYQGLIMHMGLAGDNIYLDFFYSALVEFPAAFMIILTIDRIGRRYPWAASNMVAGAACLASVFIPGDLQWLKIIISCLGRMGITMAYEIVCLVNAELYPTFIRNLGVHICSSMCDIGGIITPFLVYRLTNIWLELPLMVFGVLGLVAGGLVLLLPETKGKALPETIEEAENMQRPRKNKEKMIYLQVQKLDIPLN
The arrangement: […]; from tissue; host or cells: kidney of adult human subjects with schizophrenia (in vivo clinical study). Particulars: cited from earlier work.

The conditions of data set [5]: plasma; placebo + metformin‐HCl 850 mg single dose.
The next data set is described as follows: clinical. Particulars: human, in vivo.
Data set [6] has as its target T1, OCT2. In words: clinical. As to conditions: plasma, oral.

SMILES strings stand for the structures. Where two headings read alike, the source gives them in different places.

Take `O=C(O)[C@@H]1OCCc2ccsc21` [SEP‐383103]: the “binding or functional activity in screen of 80 targets” value in data set [1] is given as “did not identify binding or functional activity”. In addition, in [2], the “AUCinf, Geometric mean (CV%)” value was 2510 (30.1) ng * h/mL; the “AUCinf, Mean (SD)” value was 2620 (797) ng * h/mL; the “AUCinf, Median (min, max)” value is 2490 (1550, 4810) ng * h/mL; the “AUClast, Geometric mean (CV%)” value is given as 2520 (29.7) ng * h/mL. Further, in [2], the “AUClast, Mean (SD)” value was 2630 (780) ng * h/mL; the “AUClast, Median (min, max)” value is listed as 2490 (1540, 4760) ng * h/mL; the “C max, Geometric mean (CV%)” value is on record as 150 (22.6) ng/mL; the “C max, Mean (SD)” value is reported as 154 (34.9) ng/mL. Moreover, in data set [2], the “C max, Median (min, max)” value was 156 (99.7, 255) ng/mL; the “t 1/2, Mean (SD)” value is listed as 9.17 (1.78) h; the “t max, Median (min, max)” value was 6.00 (3.00, 8.00) h. Further, the “inhibitor of human efflux and uptake transporters” value in [3] is on record as “not an inhibitor”. In addition, the “inhibition of OAT3” value in the data set on OAT3 was ~ 35%. Also, the “inhibition of MATE1” value in the data set on MATE1 is ~ 20%.

Turning to `C[C@@H]1CCO[C@H]2Cn3cc(C(=O)NCc4ccc(F)cc4F)c(=O)c(O)c3C(=O)N12` [dolutegravir], the “increase of metformin AUC” value at OCT2 [4] (co‐administration of 50 mg dolutegravir bid) is 145%; at OCT2 [4] (co‐administration of 50 mg dolutegravir qd) it was 79%. The “unbound C max/IC50 ratio (OCT2)” value on OCT2 [4] (dolutegravir oral 50 mg qd or bid) is 2–3.6.

A word on the Cmax: it is the highest concentration seen after dosing. By Tmax is commonly meant the time from dosing to the highest level. What is called Vd/F is the apparent distribution volume after extravascular dosing. The term AUC(0-inf) denotes total exposure, with the tail of the curve extrapolated. Low readings indicate low exposure, high ones high exposure. As for `CN(C)C(=N)N=C(N)N` [metformin], the “t max, Median (min, max)” value in data set [5] is recorded as 4.0 (2.0, 5.0) h. Besides, in the data set “clinical”, the Cmax was 1130 ng/mL, the Tmax amounted to 4.5 h and the Vd/F was 1280 L. For the same molecule, the CL renal in the data set “clinical” (po, 850 mg) was 287 mL/min. Further, the AUC(0-inf) on OCT2 [6] was 12500 ng·h/mL.

Values taken from paper PMC10963303 (Pharmacology Research & Perspectives, 2024).
